Reference: article PMC4599563 (ACS Medicinal Chemistry Letters, 2015)

Biological target: mouse SR-BI (Mus musculus, UniProt Q61009)
Assay: [3H]cholesteryl ester uptake assay
Format: cell-based

mouse SR-BI, sequence (Q61009 whole entry): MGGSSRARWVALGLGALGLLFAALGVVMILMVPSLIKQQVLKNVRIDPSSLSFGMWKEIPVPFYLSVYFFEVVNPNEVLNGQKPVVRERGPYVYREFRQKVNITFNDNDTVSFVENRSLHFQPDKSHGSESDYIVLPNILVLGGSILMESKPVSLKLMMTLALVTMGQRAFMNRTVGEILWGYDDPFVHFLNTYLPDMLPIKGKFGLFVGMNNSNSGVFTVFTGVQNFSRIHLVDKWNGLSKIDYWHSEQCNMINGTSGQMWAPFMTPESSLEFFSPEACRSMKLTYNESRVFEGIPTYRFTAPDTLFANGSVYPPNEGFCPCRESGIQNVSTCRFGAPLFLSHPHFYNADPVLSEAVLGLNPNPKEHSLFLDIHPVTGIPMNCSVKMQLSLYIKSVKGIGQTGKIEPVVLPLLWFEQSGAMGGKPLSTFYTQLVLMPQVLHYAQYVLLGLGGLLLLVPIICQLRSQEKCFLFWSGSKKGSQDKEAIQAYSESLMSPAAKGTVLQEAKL

IC50: 940 nM
SMILES: COc1c(NC(=O)C(=O)c2ccc(OCCN3CCOCC3)c3ccccc23)cc(C(C)(C)C)cc1NS(C)(=O)=O [ITX-5061]
